# Experimental data as given in PMC10642967, “Identification of a carbohydrate recognition motif of purinergic receptors” (eLife, 2023).
# Substitutions are numbered along the chain they refer to.
# Columns and labels:
# [1] = target: T1, human P2Y12 (Homo sapiens, UniProt Q9H244); assay: Intracellular Ca2+ mobilization, HEK293 co-transfected with P2Y12 wild-type and Gαqi5; format: cell-based; settings: calcium mobilization, HEK293, P2Y12 WT + Gαqi5, mean ± SEM
# T1 construct: HA (N); expressed in transfected cells; host or cells: HEK293
# Protocol: (§1) Intracellular Ca^2+ assays were carried out as follows.
# [2] = target: T2, P2Y12-K80A (Homo sapiens, UniProt Q9H244, K80A); assay: Intracellular Ca2+ mobilization, HEK293 expressing P2Y12 K80A mutant; format: cell-based; settings: calcium mobilization, mean ± SEM
# T2 construct: HA (N); expressed in transfected cells; host or cells: HEK293
# Protocol: as §1
# [3] = target: T3, P2Y12-D84A (Homo sapiens, UniProt Q9H244, D84A); assay: Intracellular Ca2+ mobilization, HEK293 expressing P2Y12 D84A mutant; format: cell-based; settings: calcium mobilization, mean ± SEM
# T3 construct: HA (N); expressed in transfected cells; host or cells: HEK293
# Protocol: as §1
# [4] = target: T4, P2Y12-F277A (Homo sapiens, UniProt Q9H244, F277A); assay: Intracellular Ca2+ mobilization, HEK293 expressing P2Y12 F277A mutant; format: cell-based; settings: calcium mobilization, mean ± SEM
# T4 construct: HA (N); expressed in transfected cells; host or cells: HEK293
# Protocol: as §1
# [5] = target: T5, P2Y12-K280A (Homo sapiens, UniProt Q9H244, K280A); assay: Intracellular Ca2+ mobilization, HEK293 expressing P2Y12 K280A mutant; format: cell-based; settings: calcium mobilization, mean ± SEM
# T5 construct: HA (N); expressed in transfected cells; host or cells: HEK293
# Protocol: as §1
# [6] = target: T6, P2Y12-E281A (Homo sapiens, UniProt Q9H244, E281A); assay: Intracellular Ca2+ mobilization, HEK293 expressing P2Y12 E281A mutant; format: cell-based; settings: calcium mobilization, mean ± SEM
# T6 construct: HA (N); expressed in transfected cells; host or cells: HEK293
# Protocol: as §1
# [7] = target: T7, human P2Y14 (Homo sapiens, UniProt Q15391); assay: Intracellular Ca2+ mobilization, HEK293 co-transfected with P2Y14 wild-type and Gαqi5; format: cell-based; settings: calcium mobilization, HEK293, P2Y14 WT + Gαqi5, mean ± SEM
# T7 construct: HA (N); expressed in transfected cells; host or cells: HEK293
# T7 sequence (Q15391 1-338): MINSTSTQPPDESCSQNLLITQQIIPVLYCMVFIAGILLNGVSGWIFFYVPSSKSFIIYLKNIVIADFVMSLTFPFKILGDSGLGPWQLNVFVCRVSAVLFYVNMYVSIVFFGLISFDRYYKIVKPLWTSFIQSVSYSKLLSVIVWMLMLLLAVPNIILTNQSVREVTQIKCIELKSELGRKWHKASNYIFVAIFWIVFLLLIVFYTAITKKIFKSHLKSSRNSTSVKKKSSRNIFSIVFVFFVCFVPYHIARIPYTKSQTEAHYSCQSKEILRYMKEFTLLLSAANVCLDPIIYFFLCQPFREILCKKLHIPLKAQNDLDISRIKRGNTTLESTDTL
# [8] = target: T8, P2Y14-K77A (Homo sapiens, UniProt Q15391, K77A); assay: Intracellular Ca2+ mobilization, HEK293 expressing P2Y14 K77A mutant; format: cell-based; settings: calcium mobilization, mean ± SEM
# T8 construct: HA (N); expressed in transfected cells; host or cells: HEK293
# T8 sequence (Q15391 1-338 K77A): T7 sequence (Q15391 1-338) with K77A
# [9] = target: T9, P2Y14-D81A (Homo sapiens, UniProt Q15391, D81A); assay: Intracellular Ca2+ mobilization, HEK293 expressing P2Y14 D81A mutant; format: cell-based; settings: calcium mobilization, mean ± SEM
# T9 construct: HA (N); expressed in transfected cells; host or cells: HEK293
# T9 sequence (Q15391 1-338 D81A): T7 sequence (Q15391 1-338) with D81A
# [10] = target: T10, P2Y14-E278A (Homo sapiens, UniProt Q15391, E278A); assay: Intracellular Ca2+ mobilization, HEK293 expressing P2Y14 E278A mutant; format: cell-based; settings: calcium mobilization, mean ± SEM
# T10 construct: HA (N); expressed in transfected cells; host or cells: HEK293
# T10 sequence (Q15391 1-338 E278A): T7 sequence (Q15391 1-338) with E278A
# [11] = target: T11, P2Y14-K277A (Homo sapiens, UniProt Q15391, K277A); assay: cell-based
# T11 sequence (Q15391 1-338 K277A): T7 sequence (Q15391 1-338) with K277A
# T5 sequence (Q9H244 whole entry K280A): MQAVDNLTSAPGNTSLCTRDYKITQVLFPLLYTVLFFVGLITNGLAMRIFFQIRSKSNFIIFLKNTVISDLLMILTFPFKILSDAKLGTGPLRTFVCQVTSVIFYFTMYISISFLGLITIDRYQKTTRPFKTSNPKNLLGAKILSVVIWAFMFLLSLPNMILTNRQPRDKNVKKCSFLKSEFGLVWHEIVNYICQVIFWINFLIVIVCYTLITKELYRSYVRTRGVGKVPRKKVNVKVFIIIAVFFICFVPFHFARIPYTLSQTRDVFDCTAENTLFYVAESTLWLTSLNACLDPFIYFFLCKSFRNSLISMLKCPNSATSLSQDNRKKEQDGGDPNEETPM
# T6 sequence (Q9H244 whole entry E281A): as the sequence (Q9H244 whole entry K280A) above, with A280K, E281A counted along it
# T4 sequence (Q9H244 whole entry F277A): as the sequence (Q9H244 whole entry K280A) above, with F277A, A280K counted along it
# T2 sequence (Q9H244 whole entry K80A): as the sequence (Q9H244 whole entry K280A) above, with K80A, A280K counted along it
# T1 sequence (Q9H244 whole entry): as the sequence (Q9H244 whole entry K280A) above, with A280K counted along it
# T3 sequence (Q9H244 whole entry D84A): as the sequence (Q9H244 whole entry K280A) above, with D84A, A280K counted along it
SMILES,EC50 [1],EC50 [2],EC50 [3],EC50 [4],EC50 [5],EC50 [6],EC50 [7],EC50 [8],EC50 [9],EC50 [10],EC50 [11]
"Nc1ncnc2c1ncn2C1OC(COP(=O)(O)OP(=O)(O)OC2OC(CO)C(O)C(O)C2O)C(O)C1O (stereo not shown) [ADP-Glc, ADP-glucose]",3.4 ± 0.4 µM,96.9 ± 14.4 µM,29.3 ± 1.2 µM,15.4 ± 1.1 µM,41.8 ± 3 µM,75.3 ± 10.1 µM,,,,,
"Nc1ncnc2c1ncn2C1OC(COP(=O)(O)OP(=O)(O)OC2OC(C(=O)O)C(O)C(O)C2O)C(O)C1O (stereo not shown) [ADP-GlcA, ADP-glucuronic acid]",1.3 ± 0.1 µM,35.2 ± 0.5 µM,9.4 ± 0.3 µM,5 ± 0.4 µM,18.1 ± 3.3 µM,28.2 ± 4.1 µM,,,,,
"Nc1ncnc2c1ncn2C1OC(COP(=O)(O)OP(=O)(O)OC2OC(CO)C(O)C(O)C2O)C(O)C1O (stereo not shown) [ADP-Man, ADP-mannose]",12.3 ± 0.9 µM,> 150 µM,> 150 µM,128 ± 17.6 µM,> 150 µM,> 150 µM,,,,,
"O=C(O)C1OC(OP(=O)(O)OP(=O)(O)OCC2OC(n3ccc(=O)[nH]c3=O)C(O)C2O)C(O)C(O)C1O (stereo not shown) [UDP-GlcA, UDP-glucuronic acid]",,,,,,,0.0599 ± 0.0048 µM,> 3 µM,0.172 ± 0.0098 µM,0.0382 ± 0.0022 µM,> 3 µM
"CC(=O)N[C@H]1[C@@H](OP(=O)(O)OP(=O)(O)OC[C@H]2O[C@@H](n3ccc(=O)[nH]c3=O)[C@H](O)[C@@H]2O)O[C@H](CO)[C@@H](O)[C@@H]1O [UDP-GlcNAc, UDP-N-acetylglucosamine]",,,,,,,0.184 ± 0.0118 µM,> 3 µM,3 ± 0.174 µM,0.624 ± 0.102 µM,0.549 ± 0.0744 µM
